According to ChEMBL document CHEMBL1201862, “PubChem BioAssay data set” (2004):
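Method: 48-hour compound exposure of cells in 96-well plates, five concentrations, linear interpolation of endpoints. GI50 marks 50% less growth.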 Activity calls are given as the source filed them. Cut-off read from the data, not from the text of the source: active = GI50 up to about 1.1 µM and inactive = higher.

Columns and labels:
Test in all cases: DTP human tumour cell line panel, 48 h
A498 = tested on: A498
A549 = tested on: A549
CAKI-1 = tested on: CAKI-1
CCRF-CEM = tested on: CCRF-CEM
COLO 205 = tested on: COLO 205
DLD-1 = tested on: DLD-1
DMS-273 = tested on: DMS-273
EKVX = tested on: EKVX
HCC 2998 = tested on: HCC 2998
HCT-116 = tested on: HCT-116
HCT-15 = tested on: HCT-15
HOP-18 = tested on: HOP-18
HOP-62 = tested on: HOP-62
HOP-92 = tested on: HOP-92
HT-29 = tested on: HT-29
IGROV-1 = tested on: IGROV-1
K562 = tested on: K562
KM-20L2 = tested on: KM-20L2
KM12 = tested on: KM12
LOX IMVI = tested on: LOX IMVI
M19-MEL = tested on: M19-MEL
MCF7 = tested on: MCF7
MOLT-4 = tested on: MOLT-4
Malme-3M = tested on: Malme-3M
NCI-H226 = tested on: NCI-H226
NCI-H23 = tested on: NCI-H23
NCI-H460 = tested on: NCI-H460
NCI-H522 = tested on: NCI-H522
NCI/ADR-RES = tested on: NCI/ADR-RES
OVCAR-3 = tested on: OVCAR-3
OVCAR-4 = tested on: OVCAR-4
OVCAR-5 = tested on: OVCAR-5
OVCAR-8 = tested on: OVCAR-8
RPMI-8226 = tested on: RPMI-8226
RXF 393 = tested on: RXF 393
SF-268 = tested on: SF-268
SF-295 = tested on: SF-295
SF-539 = tested on: SF-539
SK-MEL-28 = tested on: SK-MEL-28
SK-MEL-2 = tested on: SK-MEL-2
SK-MEL-5 = tested on: SK-MEL-5
SK-OV-3 = tested on: SK-OV-3
SN12C = tested on: SN12C
SNB-19 = tested on: SNB-19
SNB-75 = tested on: SNB-75
SNB-78 = tested on: SNB-78
SW-620 = tested on: SW-620
U-251 = tested on: U-251
UACC-257 = tested on: UACC-257
UACC-62 = tested on: UACC-62
UO-31 = tested on: UO-31
XF498 = tested on: XF498
786-0 = tested on: 786-0
ACHN = tested on: ACHN
DMS-114 = tested on: DMS-114
HL-60 = tested on: HL-60
LXFL 529 = tested on: LXFL 529
M14 = tested on: M14
SR = tested on: SR
TK-10 = tested on: TK-10

In the case of CC1=CC2=C(C=O)C(=O)[C@](C)(O)[C@@H](O)C2=CO1, the GI50 (A498) is reported as 24.3 µM (inactive), the GI50 (A549) is reported as 28 µM (inactive) and the GI50 (CAKI-1) is reported as 33.5 µM (inactive). The GI50 (CCRF-CEM) was 21.5 µM (inactive), the GI50 (COLO 205) was 28.1 µM (inactive) and the GI50 (DLD-1) was 28.9 µM (inactive). For the same molecule, the GI50 (DMS-273) was 28.9 µM (inactive), the GI50 (EKVX) was 46.9 µM (inactive) and the GI50 (HCC 2998) was 19.1 µM (inactive). For the same molecule, the GI50 (HCT-116) was 22.3 µM (inactive), the GI50 (HCT-15) was 28.8 µM and the GI50 (HOP-18) was > 54.5 µM (inactive). For the same molecule, the GI50 (HOP-62) was 24.3 µM (inactive), the GI50 (HOP-92) was > 65.5 µM (inactive) and the GI50 (HT-29) was 37.7 µM (inactive). The GI50 (IGROV-1) was 32.1 µM (inactive), the GI50 (K562) was 27.9 µM (inactive) and the GI50 (KM-20L2) was 1.21 µM (inactive). For the same molecule, the GI50 (KM12) was 33.3 µM (inactive), the GI50 (LOX IMVI) was 27.7 µM (inactive) and the GI50 (M19-MEL) was 22.4 µM (inactive). For the same molecule, the GI50 (MCF7) was 39.4 µM (inactive), the GI50 (MOLT-4) was 15.6 µM (inactive) and the GI50 (Malme-3M) was 26.4 µM (inactive). For the same molecule, the GI50 (NCI-H226) was 25.8 µM (inactive), the GI50 (NCI-H23) was 37.2 µM (inactive) and the GI50 (NCI-H460) was 29.9 µM (inactive). For the same molecule, the GI50 (NCI-H522) was 17.2 µM (inactive), the GI50 (NCI/ADR-RES) was > 53.8 µM (inactive) and the GI50 (OVCAR-3) was 1.56 µM (inactive). For the same molecule, the GI50 (OVCAR-4) was 39.1 µM (inactive), the GI50 (OVCAR-5) was > 50.8 µM (inactive) and the GI50 (OVCAR-8) was > 64.7 µM (inactive). For the same molecule, the GI50 (RPMI-8226) was 15.9 µM (inactive), the GI50 (RXF 393) was 16.7 µM (inactive) and the GI50 (SF-268) was 24.9 µM (inactive). For the same molecule, the GI50 (SF-295) was 35.7 µM (inactive), the GI50 (SF-539) was 29.4 µM (inactive) and the GI50 (SK-MEL-28) was 25.2 µM (inactive). For the same molecule, the GI50 (SK-MEL-2) was 24.2 µM (inactive), the GI50 (SK-MEL-5) was 24.6 µM (inactive) and the GI50 (SK-OV-3) was 19.5 µM (inactive). For the same molecule, the GI50 (SN12C) was 28.6 µM (inactive), the GI50 (SNB-19) was 0.982 µM (active) and the GI50 (SNB-75) was 13.8 µM (inactive). The GI50 (SNB-78) was 38.5 µM (inactive), the GI50 (SW-620) was 29.4 µM (inactive) and the GI50 (U-251) was 25.2 µM (inactive). For the same molecule, the GI50 (UACC-257) was 33.2 µM (inactive), the GI50 (UACC-62) was 23.5 µM (inactive) and the GI50 (UO-31) was 16.8 µM (inactive). For the same molecule, the GI50 (XF498) was > 54.3 µM (inactive).
O=C1C(c2ccccc2)=C(O)c2cccc3cccc1c23 was tested, and the GI50 (786-0) was > 100 µM (inactive), the GI50 (A498) was > 100 µM (inactive) and the GI50 (A549) was > 100 µM (inactive). For the same molecule, the GI50 (ACHN) was > 100 µM (inactive), the GI50 (CAKI-1) was > 100 µM (inactive) and the GI50 (CCRF-CEM) was > 100 µM (inactive). For the same molecule, the GI50 (COLO 205) was > 100 µM (inactive), the GI50 (DMS-114) was > 100 µM (inactive) and the GI50 (DMS-273) was > 100 µM (inactive). For the same molecule, the GI50 (EKVX) was > 100 µM (inactive), the GI50 (HCC 2998) was > 100 µM (inactive) and the GI50 (HCT-116) was > 100 µM (inactive). The GI50 (HCT-15) was over 100 µM, the GI50 (HL-60) was > 100 µM (inactive) and the GI50 (HOP-18) was 33.6 µM (inactive). The GI50 (HOP-92) was 29 µM (inactive), the GI50 (HT-29) was > 100 µM (inactive) and the GI50 (IGROV-1) was > 100 µM (inactive). For the same molecule, the GI50 (K562) was > 100 µM (inactive), the GI50 (KM-20L2) was > 100 µM (inactive) and the GI50 (KM12) was > 100 µM (inactive). For the same molecule, the GI50 (LOX IMVI) was > 100 µM (inactive), the GI50 (LXFL 529) was > 100 µM (inactive) and the GI50 (M14) was > 100 µM (inactive). For the same molecule, the GI50 (M19-MEL) was > 100 µM (inactive), the GI50 (MOLT-4) was > 100 µM (inactive) and the GI50 (Malme-3M) was > 100 µM (inactive). The GI50 (NCI-H226) was 88.9 µM (inactive), the GI50 (NCI-H23) was > 100 µM (inactive) and the GI50 (NCI-H460) was > 100 µM (inactive). The GI50 (NCI-H522) was > 100 µM (inactive), the GI50 (OVCAR-3) was 47.4 µM (inactive) and the GI50 (OVCAR-4) was > 100 µM (inactive). For the same molecule, the GI50 (OVCAR-5) was > 100 µM (inactive), the GI50 (OVCAR-8) was > 100 µM (inactive) and the GI50 (RPMI-8226) was > 100 µM (inactive). The GI50 (RXF 393) was > 100 µM (inactive), the GI50 (SF-268) was > 100 µM (inactive) and the GI50 (SF-295) was > 100 µM (inactive). The GI50 (SF-539) was > 100 µM (inactive), the GI50 (SK-MEL-28) was > 100 µM (inactive) and the GI50 (SK-MEL-2) was > 100 µM (inactive). For the same molecule, the GI50 (SK-MEL-5) was > 100 µM (inactive), the GI50 (SK-OV-3) was > 100 µM (inactive) and the GI50 (SN12C) was > 100 µM (inactive). For the same molecule, the GI50 (SNB-19) was > 100 µM (inactive), the GI50 (SNB-75) was 40.3 µM (inactive) and the GI50 (SNB-78) was > 100 µM (inactive). The GI50 (SR) was > 100 µM (inactive), the GI50 (SW-620) was > 100 µM (inactive) and the GI50 (TK-10) was > 100 µM (inactive). The GI50 (U-251) was > 100 µM (inactive), the GI50 (UACC-257) was > 100 µM (inactive) and the GI50 (UACC-62) was > 100 µM (inactive). For the same molecule, the GI50 (UO-31) was > 100 µM (inactive) and the GI50 (XF498) was > 100 µM (inactive).
In the case of CC(C)NCCCC(C)Nc1ccnc2ccc3nn(C)nc3c12 (centres undefined), the GI50 (786-0) is reported as 44.2 µM (inactive), the GI50 (A498) is reported as > 100 µM (inactive) and the GI50 (A549) is reported as 62.1 µM (inactive). For the same molecule, the GI50 (ACHN) was 61.2 µM (inactive), the GI50 (CAKI-1) was 60.5 µM (inactive) and the GI50 (CCRF-CEM) was 41.9 µM (inactive). The GI50 (COLO 205) was 28.3 µM (inactive), the GI50 (DLD-1) was 71.9 µM (inactive) and the GI50 (DMS-114) was 61.7 µM (inactive). For the same molecule, the GI50 (DMS-273) was 41.7 µM (inactive), the GI50 (EKVX) was > 100 µM (inactive) and the GI50 (HCC 2998) was 57.9 µM (inactive). For the same molecule, the GI50 (HCT-116) was 34.8 µM (inactive), the GI50 (HL-60) was 42.4 µM (inactive) and the GI50 (HOP-18) was 9.4 µM (inactive). The GI50 (HOP-62) was 52.7 µM (inactive), the GI50 (HT-29) was 37.8 µM (inactive) and the GI50 (IGROV-1) was > 100 µM (inactive). For the same molecule, the GI50 (K562) was 33.2 µM (inactive), the GI50 (KM-20L2) was > 10 µM (inactive) and the GI50 (KM12) was 50.8 µM (inactive). For the same molecule, the GI50 (LOX IMVI) was 33.6 µM (inactive), the GI50 (LXFL 529) was 57.1 µM (inactive) and the GI50 (M14) was 38.8 µM (inactive). For the same molecule, the GI50 (M19-MEL) was 84.9 µM (inactive), the GI50 (MOLT-4) was 35 µM (inactive) and the GI50 (Malme-3M) was 63 µM (inactive). The GI50 (NCI-H226) was 31.8 µM (inactive), the GI50 (NCI-H23) was > 100 µM (inactive) and the GI50 (NCI-H460) was 38.6 µM (inactive). For the same molecule, the GI50 (NCI-H522) was > 100 µM (inactive), the GI50 (OVCAR-5) was 75.7 µM (inactive) and the GI50 (OVCAR-8) was 43.6 µM (inactive). The GI50 (RPMI-8226) was 74.8 µM (inactive), the GI50 (SF-268) was 96.8 µM (inactive) and the GI50 (SF-295) was 34.6 µM (inactive). The GI50 (SF-539) was 83.2 µM (inactive), the GI50 (SK-MEL-5) was 38.5 µM (inactive) and the GI50 (SK-OV-3) was > 100 µM (inactive). The GI50 (SN12C) was 61.8 µM (inactive), the GI50 (SNB-19) was > 100 µM (inactive) and the GI50 (SNB-75) was > 100 µM (inactive). The GI50 (SNB-78) was 43.1 µM (inactive), the GI50 (SR) was 40.1 µM (inactive) and the GI50 (SW-620) was 38.5 µM (inactive). The GI50 (TK-10) was > 100 µM (inactive), the GI50 (U-251) was > 100 µM (inactive) and the GI50 (UACC-257) was 74.5 µM (inactive). For the same molecule, the GI50 (UACC-62) was > 100 µM (inactive), the GI50 (UO-31) was 33.7 µM (inactive) and the GI50 (XF498) was > 100 µM (inactive).
